We go through 32 molecules from patent US6284785A, “1-arenesulfonyl-2-aryl-pyrrolidine and pyridine derivatives” (Hoffmann- La Roche Inc., priority 1999, dated 2001).

This test has as its target T1, rat mGlu 1a receptor (Rattus norvegicus, UniProt P23385).
T1 construct: expressed in transfected cells; host or cells: EBNA cells (transient transfection)
The test is described as follows: [Ca2+]i measurements (FLIPR, Fluo-3 AM) on mGlu 1a transfected EBNA cells; agonist or antagonist (against 10 μM glutamate). The format is cell-based. The note with it: for Remarks (agonist / antagonist): table of substituents of the Examples, column Remarks; for agonist/antagonist: activity-data table; for EC50: agonist, activation of mGlu 1a in EBNA cells, read-out: IC50 (compounds marked agonist); for IC50: antagonist, tested against 10 μM glutamate as agonist, read-out: IC50 (compounds marked antagonist). Here is the method: cDNA encoding rat mGlu 1a receptor obtained from Prof. Nakanishi (Kyoto, Japan) was transiently tranfected into EBNA cells using a procedure described by Schlaeger et. al, New Dev. New Appl. Anim Cell Techn., Proc. ESACT Meet., 15th (1998), 105-112 and 117-120. [Ca^2+ ]i measurements were performed on mGlu 1a transfected EBNA cells after incubation of the cells with Fluo-3 AM (0.5 μM final concentration) for 1hour at 37° C. followed by 4 washes with assay buffer (DMEM supplemented with Hank's salt and 20 mM HEPES. [Ca^2+ ]i measurements were done using a fluorometric imaging plate reader (FLIPR, Molecular Devices Corporation, La Jolla, Calif. USA). When compounds were evaluated as antagonists they were tested against 10 μM glutamate as agonist.
The inhibition (antagonists) or activation (agonists) curves were fitted with a four parameter logistic equation giving EC50, IC50, and Hill coefficient using the iterative non linear curve fitting software Origin (Microcal Software Inc., Northampton, Mass., USA).

T1 sequence (P23385 19-1199): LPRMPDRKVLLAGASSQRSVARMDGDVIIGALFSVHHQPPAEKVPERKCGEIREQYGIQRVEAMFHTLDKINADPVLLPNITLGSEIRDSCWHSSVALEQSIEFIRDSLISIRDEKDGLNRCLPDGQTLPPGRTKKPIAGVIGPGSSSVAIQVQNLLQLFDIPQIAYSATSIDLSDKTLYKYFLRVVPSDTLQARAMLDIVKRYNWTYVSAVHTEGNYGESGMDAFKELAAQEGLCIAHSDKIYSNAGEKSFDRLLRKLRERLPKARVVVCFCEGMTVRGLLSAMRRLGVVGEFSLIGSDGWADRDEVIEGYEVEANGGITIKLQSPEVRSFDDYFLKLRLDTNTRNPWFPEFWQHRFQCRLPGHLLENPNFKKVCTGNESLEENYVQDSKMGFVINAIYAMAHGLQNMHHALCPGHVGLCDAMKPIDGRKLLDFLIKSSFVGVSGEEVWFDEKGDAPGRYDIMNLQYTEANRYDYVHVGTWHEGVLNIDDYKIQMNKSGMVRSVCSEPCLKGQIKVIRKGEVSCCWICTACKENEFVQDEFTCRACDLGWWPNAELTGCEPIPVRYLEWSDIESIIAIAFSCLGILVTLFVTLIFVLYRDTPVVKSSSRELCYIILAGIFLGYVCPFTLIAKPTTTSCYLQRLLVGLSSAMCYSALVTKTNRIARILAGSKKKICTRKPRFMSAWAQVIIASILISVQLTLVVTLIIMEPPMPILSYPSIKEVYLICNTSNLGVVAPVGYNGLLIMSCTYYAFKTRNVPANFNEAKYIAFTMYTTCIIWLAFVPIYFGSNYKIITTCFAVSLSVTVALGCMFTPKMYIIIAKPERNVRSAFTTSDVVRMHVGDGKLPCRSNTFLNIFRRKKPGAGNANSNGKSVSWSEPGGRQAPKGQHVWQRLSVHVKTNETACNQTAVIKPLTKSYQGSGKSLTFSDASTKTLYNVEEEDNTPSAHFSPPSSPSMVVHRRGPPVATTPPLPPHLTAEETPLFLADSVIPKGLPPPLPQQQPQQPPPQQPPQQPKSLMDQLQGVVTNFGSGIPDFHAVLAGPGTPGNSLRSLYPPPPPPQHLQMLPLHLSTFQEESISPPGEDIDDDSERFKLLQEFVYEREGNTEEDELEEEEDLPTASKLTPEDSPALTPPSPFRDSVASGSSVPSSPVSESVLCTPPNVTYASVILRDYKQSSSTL

For `CN(C)c1ccc(C2CCCN2S(=O)(=O)c2ccc(Cl)cc2)cc1Cl` (racemic) [Example 45, (RS)-1-(4-Chloro-benzenesulfonyl)-2-(4-dimethylamino-3-chloro-phenyl)-pyrrolidine], the “Remarks (agonist / antagonist)” value is “Antagonist”.

With `Cc1ccc(S(=O)(=O)N2CCCC2c2ccncc2)cc1` (racemic) [Example 3, (RS)-4-[1-(Toluene-4-sulfonyl)-pyrrolidin-2-yl]-pyridine], the agonist/antagonist result is on record as “agonist”, the EC50 turned out to be 8.22 µM and the “Remarks (agonist / antagonist)” value is “Agonist”.

Turning to `O=S(=O)(c1ccc(Cl)cc1)N1CCCC1c1cccs1` (racemic) [Example 36, (RS)-1-(4-Chloro-benzenesulfonyl)-2-thien-2-yl-pyrrolidine], the agonist/antagonist entry is given as “antagonist”; the concentration for half-maximal inhibition (IC50) (as a rule, the concentration needed to halve the response being measured) was found to be 560 nM; the “Remarks (agonist / antagonist)” value was “Antagonist”.

On to `Cc1ccc(S(=O)(=O)N2CC[C@@H](CO)[C@@H]2c2ccc(F)cc2)cc1` (racemic) [Example 91, (2RS,3 RS)-[2-(4-Fluoro-phenyl)-1-(toluene-4-sulfonyl)-pyrrolidin-3-yl]-methanol], for which the “agonistic / antagonistic activity to the mGlu receptor” value (“agonistic / antagonistic activity” for short) is given as “agonistic activty” and the “Remarks (agonist / antagonist)” value was “agonist”.

Turning to `Cc1ccc(C2CCCN2S(=O)(=O)c2ccc(C)cc2)cc1` (racemic) [Example 19, (RS)-1-(Toluene-4-sulfonyl)-2-p-tolyl-pyrrolidine], the “agonistic / antagonistic activity” value is on record as “agonistic activty” and the “Remarks (agonist / antagonist)” value was “Agonist”.

For `Cc1cc(C)c(S(=O)(=O)N2CCCC2c2ccc(F)cc2)c(C)c1` (racemic) [Example 61, (RS)-2-(4-Fluoro-phenyl)-1-(2,4,6-trimethyl-benzenesulfonyl)-pyrrolidine], the “Remarks (agonist / antagonist)” value is recorded as “Antagonist”.

As to `Cc1ccc(S(=O)(=O)N2CCCC2c2ccc(F)cc2)cc1Cl` (racemic) [Example 62, (RS)-1-(3-Chloro-4-methyl-benzenesulfonyl)-2-(4-fluoro-phenyl)-pyrrolidine], the “Remarks (agonist / antagonist)” value is reported as “Antagonist”.

Take `N#Cc1ccccc1S(=O)(=O)N1CCCC1c1ccc(F)cc1` (racemic) [Example 65, (RS)-1-(2-Cyano-benzenesulfonyl)-2-(4-fluoro-phenyl)-pyrrolidine]: the “Remarks (agonist / antagonist)” value is on record as “Antagonist”.

Regarding `CCc1ccc(C2CCCN2S(=O)(=O)c2ccc(Cl)cc2)cc1` (racemic) [Example 79, (RS)-2-(4-Ethyl-phenyl)-1-(4-chloro-benzenesulfonyl)-pyrrolidine], the “Remarks (agonist / antagonist)” value was “Antagonist”.

In the case of `O=S(=O)(c1ccc(Cl)cc1)N1CCCC1c1ccc(Cl)cc1` (racemic) [Example 9, (RS)-1-(4-Chloro-benzenesulfonyl)-2-(4-chloro-phenyl)-pyrrolidine], the “agonistic / antagonistic activity” value is given as “agonistic activty” and the “Remarks (agonist / antagonist)” value was “Agonist”.

Consider `COc1ccc(C2CCCN2S(=O)(=O)c2ccc(C)cc2)cc1` (racemic) [Example 25, (RS)-2-(4-Methoxy-phenyl)-1-(toluene-4-sulfonyl)-pyrrolidine], for which the “agonistic / antagonistic activity” value is recorded as “agonistic activty” and the “Remarks (agonist / antagonist)” value was “Agonist”.

Regarding `Cc1ccc(S(=O)(=O)N2CCCC2c2ccc(F)c(Cl)c2)cc1` (racemic) [Example 42, (RS)-2-(3-Chloro-4-fluoro-phenyl)-1-(toluene-4-sulfonyl)-pyrrolidine], the “Remarks (agonist / antagonist)” value was “Agonist”.

With `O=S(=O)(c1ccccc1)N1CCCC1c1ccc(C(F)(F)F)cc1` (racemic) [Example 75, (RS)-1-Benzenesulfonyl-2-(4-trifluoromethyl-phenyl)-pyrrolidine], the “Remarks (agonist / antagonist)” value was “Antagonist”.

For `Cc1ccc(C2CCCN2S(=O)(=O)c2ccc(F)cc2)cc1` (racemic) [Example 23, (RS)-1-(4-Fluoro-benzenesulfonyl)-2-p-tolyl-pyrrolidine], the “Remarks (agonist / antagonist)” value is “Antagonist”.

For `O=S(=O)(c1ccc(F)cc1)N1CCCC1c1ccc(F)cc1` (racemic) [Example 16, (RS)-1-(4-Fluoro-benzenesulfonyl)-2-(4-fluoro-phenyl)-pyrrolidine], the “agonistic / antagonistic activity” value is reported as “agonistic activty” and the “Remarks (agonist / antagonist)” value is “Agonist”.

Take `Cc1ccc(S(=O)(=O)N2CCCC2c2cccnc2)cc1` (racemic) [Example 83, (RS)-3-[1-(Toluene-4-sulfonyl)-pyrrolidin-2-yl]-pyridine]: the “agonistic / antagonistic activity” value is reported as “agonistic activty” and the “Remarks (agonist / antagonist)” value was “Agonist”.

With `O=S(=O)(c1ccc(C(F)(F)F)cc1)N1CCCC1c1ccc(F)cc1` (racemic) [Example 60, (RS)-2-(4-Fluoro-phenyl)-1-(4-trifluoromethyl-benzenesulfonyl)-pyrrolidine], the “agonistic / antagonistic activity” value is “agonistic activty” and the “Remarks (agonist / antagonist)” value is “Agonist”.

For the molecule `COc1ccc(S(=O)(=O)N2CCCC2c2ccc(F)cc2)cc1` (racemic) [Example 10, (RS)-2-(4-Fluoro-phenyl)-1-(4-methoxy-benzenesulfonyl)-pyrrolidine], the “Remarks (agonist / antagonist)” value is recorded as “Antagonist”.

On to `Cc1ccc(C2CCCN2S(=O)(=O)c2ccc(F)cc2)c(C)c1` (racemic) [Example 68, (RS)-2-(2,4-Dimethyl-phenyl)-1-(4-fluoro-benzenesulfonyl)-pyrrolidine], for which the “Remarks (agonist / antagonist)” value is reported as “Antagonist”.

Take `O=S(=O)(c1ccc(Cl)cc1)N1CCCC1c1cccc(Cl)c1` (racemic) [Example 32, (RS)-1-(4-Chloro-benzenesulfonyl)-2-(3-chloro-phenyl)-pyrrolidine]: the “Remarks (agonist / antagonist)” value is given as “Antagonist”.

For `Cc1ccc(S(=O)(=O)N2CCCC2c2ccc(N(C)C)c(F)c2)cc1` (racemic) [Example 41, (RS)-1-(p-Toluenesulfonyl)-2-(4-dimethylamino-3-fluoro-phenyl)-pyrrolidine], the “Remarks (agonist / antagonist)” value is reported as “Antagonist”.

As for `O=S(=O)(c1ccc(Br)cc1)N1CCCC1c1ccc(F)cc1` (racemic) [Example 26, (RS)-1-(4-Bromo-benzenesulfonyl)-2-(4-fluoro-phenyl)-pyrrolidine], the “agonistic / antagonistic activity” value is listed as “agonistic activty” and the “Remarks (agonist / antagonist)” value is “Agonist”.

With `Cc1ccc(S(=O)(=O)N2CCC[C@H]2c2ccc(F)cc2)cc1` [Example 82, (S)-2-(4-Fluoro-phenyl)-1-(toluene-4-sulfonyl)-pyrrolidine], the “agonistic / antagonistic activity” value is recorded as “agonistic activty” and the “Remarks (agonist / antagonist)” value is reported as “Agonist”.

Regarding `Cc1ccc(S(=O)(=O)N2CCCC2c2ccsc2)cc1` (racemic) [Example 55, (RS)-2-Thien-3-yl-1-(toluene-4-sulfonyl)-pyrrolidine], the “agonistic / antagonistic activity” value was “agonistic activty” and the “Remarks (agonist / antagonist)” value is “Agonist”.

For `Cc1ccccc1S(=O)(=O)N1CCCC1c1ccc(F)cc1` (racemic) [Example 18, (RS)-2-(4-Fluoro-phenyl)-1-(toluene-2-sulfonyl)-pyrrolidine], the agonist/antagonist result is reported as “antagonist”, the 50% inhibitory concentration (IC50) was determined as 1370 nM and the “Remarks (agonist / antagonist)” value is listed as “Antagonist”.

For the molecule `O=S(=O)(c1ccc(Cl)cc1)N1CCCC1c1ccc(F)c(Cl)c1` (racemic) [Example 43, (RS)-1-(4-Chloro-benzenesulfonyl)-2-(3-chloro-4-fluoro-phenyl)-pyrrolidine], the “Remarks (agonist / antagonist)” value was “Antagonist”.

As for `COCc1ccc(S(=O)(=O)N2CCCC2c2ccc(F)cc2)cc1` (racemic) [Example 85, (RS)-2-(4-Fluoro-phenyl)-1-(4-methoxymethyl-benzenesulfonyl)-pyrrolidine], the “agonistic / antagonistic activity” value is listed as “agonistic activty” and the “Remarks (agonist / antagonist)” value is listed as “Agonist”.

Turning to `Cc1ccc(S(=O)(=O)N2CCCC2c2ccccc2)cc1` (racemic) [Example 4, (RS)-2-Phenyl-1-(toluene-4-sulfonyl)-pyrrolidine], the agonist/antagonist entry is listed as “agonist”, the EC50 amounted to 0.23 µM and the “Remarks (agonist / antagonist)” value is on record as “Agonist”.

Consider `CC(C)c1ccc(S(=O)(=O)N2CCCC2c2ccc(F)cc2)cc1` (racemic) [Example 22, (RS)-2-(4-Fluoro-phenyl)-1-(4-isopropyl-benzenesulfonyl)-pyrrolidine], for which the “Remarks (agonist / antagonist)” value is “Antagonist”.

With `O=S(=O)(c1ccc(Cl)cc1)N1CCC[C@H]1c1ccc(F)cc1` [Example 77, (S)-1-(4-Chloro-benzenesulfonyl)-2-(4-fluoro-phenyl)-pyrrolidine], the “agonistic / antagonistic activity” value is “agonistic activty” and the “Remarks (agonist / antagonist)” value is recorded as “Agonist”.

For `Cc1ccc(S(=O)(=O)N2CCCC2c2cccc(Cl)c2)cc1` (racemic) [Example 31, (RS)-2-(3-Chloro-phenyl)-1-(toluene-4-sulfonyl)-pyrrolidine], the “agonistic / antagonistic activity” value was “agonistic activty” and the “Remarks (agonist / antagonist)” value was “Agonist”.

For `O=S(=O)(c1ccccc1)N1CCCC1c1ccc(Cl)cc1` (racemic) [Example 13, (RS)-1-Benzenesulfonyl-2-(4-chloro-phenyl)-pyrrolidine], the “Remarks (agonist / antagonist)” value was “Agonist”.
